Assay results: ChEMBL document CHEMBL1152064, “Nucleosides and nucleotides. 128. (2S)-2-deoxy-2-C-methyl-5-iodouridine (SMIU) as a novel potent anti-herpes virus agent” (Bioorg Med Chem Lett, 1994)
Converted amounts (≈) assume the structure as drawn.

What was measured:
[1] = test system: NC-37; assay: Cytotoxic concentration required to inhibit NC-37 cells by 50%; assay type: functional; settings: Homo sapiens
[2] = test system: NC-37; assay: Concentration required to reduce HSV-1 (KOS strain) induced cytopathogenicity in NC-37 cells; assay type: functional, cell-based; settings: Homo sapiens

| SMILES | EC50 [2] | CC50 [1] |
| --- | --- | --- |
| C[C@H]1[C@H](O)[C@@H](CO)O[C@H]1n1cc(F)c(N)nc1=O | 0.22 µg/mL (≈ 0.849 µM) | 0.22 µg/mL (≈ 0.849 µM) |
| C[C@H]1[C@H](O)[C@@H](CO)O[C@H]1n1cc(Br)c(N)nc1=O | > 100 µg/mL | > 100 µg/mL |
| C[C@H]1[C@H](O)[C@@H](CO)O[C@H]1n1cc(I)c(N)nc1=O | 4.8 µg/mL (≈ 13.1 µM) | > 100 µg/mL |
| Nc1nc(=O)n([C@@H]2O[C@H](CO)[C@@H](O)[C@@H]2F)cc1I [FIACITABINE] | 0.1 µg/mL (≈ 0.269 µM) | 63 µg/mL (≈ 170 µM) |
| Nc1nc2c(ncn2COCCO)c(=O)[nH]1 [ACYCLOVIR] | 0.17 µg/mL (≈ 0.755 µM) | > 100 µg/mL |
| O=c1[nH]c(=O)n([C@H]2C[C@H](O)[C@@H](CO)O2)cc1I [IDOXURIDINE] | > 80 µg/mL | 80 µg/mL (≈ 226 µM) |

Further lines, with some results ahead:

| EC50 [2] | SMILES | CC50 [1] |
| --- | --- | --- |
| 0.14 µg/mL (≈ 0.38 µM) | C[C@H]1[C@H](O)[C@@H](CO)O[C@H]1n1cc(I)c(=O)[nH]c1=O | > 100 µg/mL |
| 0.06 µg/mL (≈ 0.161 µM) | O=c1[nH]c(=O)n([C@@H]2O[C@H](CO)[C@@H](O)[C@@H]2F)cc1I [FIALURIDINE] | 6.7 µg/mL (≈ 18 µM) |
| > 100 µg/mL | C[C@H]1[C@H](O)[C@@H](CO)O[C@H]1n1cc(Cl)c(N)nc1=O | > 100 µg/mL |
| 11 µg/mL (≈ 34.3 µM) | C[C@H]1[C@H](O)[C@@H](CO)O[C@H]1n1cc(Br)c(=O)[nH]c1=O | > 100 µg/mL |
| > 100 µg/mL | C[C@H]1[C@H](O)[C@@H](CO)O[C@H]1n1cc(F)c(=O)[nH]c1=O | > 100 µg/mL |
| > 100 µg/mL | C[C@H]1[C@H](O)[C@@H](CO)O[C@H]1n1cc(Cl)c(=O)[nH]c1=O | > 100 µg/mL |
